The test system of test [1] is Mus musculus. Briefly: Plasma triglyceride lowering activity in swiss albino mice was determined after 3 mg/kg compound administered for 6 days. It is filed as functional.
The test system of test [2] is Mus musculus. Description: Plasma triglyceride lowering activity in swiss albino mice was determined after 3 mg/kg compound administered for 6 days; Not effective. It is filed as functional, organism-based. On the set-up: dose 3 mg/kg.
In test [3] the test system is Mus musculus. Briefly: Plasma triglyceride lowering activity in swiss albino mice was determined after 30 mg/kg compound administered for 6 days. It is filed as functional.

Activity calls are given as the source filed them. The calls are words filed in the database; no cut-off is given here.

`CCOc1cc2ccc(OCCc3nc(-c4ccccc4)oc3C)cc2oc1=O` gave an Activity in the test on Mus musculus [1] of 31%. Turning to `CCOc1cc2ccc(OCCN(C)c3nc4ccccc4o3)cc2oc1=O`, the outcome with Mus musculus [2] was inactive. For the molecule `CC(C)OC(=O)C(C)(C)Oc1ccc(C(=O)c2ccc(Cl)cc2)cc1` [FENOFIBRATE], in the test on Mus musculus [3], the Activity is 36%.

`CCOc1cc2ccc(OC(C)(C)C(=O)O)cc2oc1=O`: in the test with Mus musculus [1], the Activity stood at 16%. Consider `CCOc1cc2ccc(OCCN3c4ccccc4Oc4ccccc43)cc2oc1=O`, for which, in the test with Mus musculus [2], the result was inactive. In the case of `CCOc1cc2ccc(OCCn3c(CC)nc(C)cc3=O)cc2oc1=O`, the Activity in the test on Mus musculus [1] is on record as 26%. The molecule `CCOC(Cc1ccc(OCCN2c3ccccc3Oc3ccccc32)cc1)C(=O)O` (configuration not stated) registered an Activity with Mus musculus [1] of 47%. For `CCOc1cc2ccc(OCCn3ccc4ccccc43)cc2oc1=O`, the Activity in the test with Mus musculus [1] was determined as 27%. Turning to `Cc1oc(-c2ccccc2)nc1CCOc1ccc2cc(C(=O)O)c(=O)oc2c1`, in the test with Mus musculus [1], the Activity is given as 32%. The same measure, in the same setting: the result for `CCOc1cc2ccc(OCc3ccccc3F)cc2oc1=O` reads 25%. `CCOC(=O)c1cc2ccc(OCCc3nc(-c4ccccc4)oc3C)cc2oc1=O` displayed an Activity in the test on Mus musculus [1] of 2%.

For `CC(=O)Nc1cc2ccc(OCCc3nc(-c4ccccc4)oc3C)cc2oc1=O`, in the test with Mus musculus [1], the Activity worked out at 2%.

On to `CCOc1cc2ccc(OCCn3ncc4ccccc4c3=O)cc2oc1=O`, for which, in the test on Mus musculus [1], the Activity worked out at 45%. `CCOc1cc2ccc(OCCn3ncc4cc(C)ccc4c3=O)cc2oc1=O`: the outcome in the test with Mus musculus [2] was inactive.

As for `CCOc1cc2ccc(OCCn3c(CC)nc4ccccc4c3=O)cc2oc1=O`, the outcome in the test on Mus musculus [2] was inactive. For `O=C(O)c1cc2ccc(OCCn3ncc4ccccc4c3=O)cc2oc1=O`, in the test on Mus musculus [2], the outcome was inactive. Same read-out and setting: under `CC(=O)Nc1cc2ccc(OCCN(C)c3nc4ccccc4o3)cc2oc1=O` stands “inactive”.

The values are drawn from ChEMBL document CHEMBL1136134, “Novel coumarin derivatives of heterocyclic compounds as lipid-lowering agents” (2003).
